# Reference: patent US9561228B2 (Celgene Avilomics Research, Inc., priority 2013, dated 2017)
# pIC50: −log10 of the molar value.
# Biological target: T1, MEK1 activated ERK1 (Homo sapiens, UniProt P27361)
# T1 construct: purchased Millipore (Billerica, Mass.) 14-439-K
# Experiment: Omnia continuous-read kinase assay for potency against MEK1 activated ERK1
# Format: biochemical
# Conditions: MEK1 activated ERK1, ATP at KM; read-out: ERK1 Omnia WT ATP KM IC50
# Source text: Omnia Assay Protocol for Potency Assessment Against MEK1 Activated ERK1:
# The protocol below describes continuous-read kinase assays to measure potency of compounds against activated ERK1 enzyme. The mechanics of the assay platform are best described by the vendor (Invitrogen, Carlsbad, Calif.) on their website at the following URL: invitrogen.com/site/us/en/home.html.
# Briefly, a 1.25× stock of ERK1 enzyme (14-439-K) from Millipore (Billerica, Mass.), 5×ATP (AS001A) and ST17-Sox conjugated peptide substrate (KNZ1171C) were prepared in 1× kinase reaction buffer consisting of 20 mM Tris, pH 7.5, 5 mM MgCl2, 1 mM EGTA, 5 mM β-glycerophosphate, 5% glycerol (10× stock, KB002A) and 0.2 mM DTT. 10 μL of ATP/ST17-sox peptide substrate mix was combined with 0.5 μL volume of 100% DMSO and serially diluted compounds were prepared in 100% DMSO in a Corning (#3574) 384-well, white, non-binding surface microtiter plate (Corning, N.Y.). Kinase reactions were started with the addition of 40 μL of ERK1 solution and monitored every 71 seconds for 30-240 minutes at λex360/λem485 in a Synergy plate reader from BioTek (Winooski, Vt.). At the conclusion of each assay, progress curves from each well were examined for linear reaction kinetics and fit statistics (R^2, 95% confidence interval, absolute sum of squares). Initial velocity (0 minutes to ˜30+ minutes) from each reaction was determined from the slope of a plot of relative fluorescence units vs time (minutes or seconds) and then plotted against inhibitor concentration to estimate ^AppIC50 from log [Inhibitor] vs Response, Variable Slope model in GraphPad Prism from GraphPad Software (San Diego, Calif.).
# [Reagent] used in optimized protocol:
# [ERK1]=4 nM, [ATP]=50 μM, [ST17-Sox]=10 μM (ATP ^appKM 48 μM)
# The results of this assay show the degree of inhibition of ERK activity, which is a direct measurement of inhibition of ERK activity. Results from this assay are reported in Table A under the column “ERK1 Omnia WT ATP KM IC50 (nM).”
# T1 sequence (P27361 whole entry): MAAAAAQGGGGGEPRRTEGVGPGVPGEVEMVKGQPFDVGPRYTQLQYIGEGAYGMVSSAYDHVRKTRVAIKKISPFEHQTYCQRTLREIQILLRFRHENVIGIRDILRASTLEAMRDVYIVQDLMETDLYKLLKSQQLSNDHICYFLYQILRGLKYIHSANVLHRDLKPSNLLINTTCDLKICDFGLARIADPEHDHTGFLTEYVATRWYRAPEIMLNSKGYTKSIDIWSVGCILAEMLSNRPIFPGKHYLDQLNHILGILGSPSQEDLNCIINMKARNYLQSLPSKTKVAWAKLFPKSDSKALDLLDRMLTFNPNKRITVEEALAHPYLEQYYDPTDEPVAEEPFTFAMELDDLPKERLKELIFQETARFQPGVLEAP
row,Compound,pIC50
1,"C=CC(=O)Nc1ccccc1Nc1nc(Nc2ccc(N(CCCNC(=O)OC(C)(C)C)C(C)=O)cc2C(F)(F)F)ncc1Cl [Compound I-169, tert-butyl(3-(N-(4-((4-((2-acrylamidophenyl)amino)-5-chloropyrimidin-2-yl)amino)-3-(trifluoromethyl)phenyl)acetamido)propyl)carbamate]",6.00 to 6.30
2,"C=CC(=O)Nc1ccccc1Nc1nc(N[C@H]2CCCN(C(=O)C(C)=O)C2)ncc1C(F)(F)F [Compound I-49, (S)—N-(2-((2-((1-(2-Oxopropanoyl)piperidin-3-yl)amino)-5-(trifluoromethyl)pyrimidin-4-yl)amino)phenyl)acrylamide]",6.00 to 6.30
3,"C=CC(=O)Nc1cc(OC)ccc1Nc1nc(Nc2ccc(N3CCC[C@@H]3CO)cc2C#N)ncc1Cl [Compound I-181, (R)—N-(2-((5-chloro-2-((2-cyano-4-(2-(hydroxymethyl)pyrrolidin-1-yl)phenyl)amino)pyrimidin-4-yl)amino)-5-methoxyphenyl)acrylamide]",6.00 to 6.30
4,C=CC(=O)Nc1ccccc1Nc1nc(Nc2ccc(N(CCCNC(=O)OC(C)(C)C)C(C)=O)cc2OC)ncc1Cl [Compound I-173],6.00 to 6.30
5,"C=CC(=O)N[C@@H]1CCCC[C@H]1Oc1nc(Nc2cc(C(N)=O)ccc2C)ncc1C(N)=O (racemic) [Compound I-268, Rac-trans-4-((2-acrylamidocyclohexyl)oxy)-2-((5-carbamoyl-2-methylphenyl)amino)pyrimidine-5-carboxamide]",< 6.00
6,"C=C(C)S(=O)(=O)Nc1ccccc1Nc1nc(Nc2cc(C(C)=O)ccc2C)ncc1C(F)(F)F [Compound I-97, N-(2-((2-((5-acetyl-2-methylphenyl)amino)-5-(trifluoromethyl)pyrimidin-4-yl)amino)phenyl)prop-1-ene-2-sulfonamide]",6.00 to 6.30
7,"C=CC(=O)Nc1cc(OC)ccc1Nc1nc(Nc2ccc(N3CCC[C@H]3CO)cc2C#N)ncc1Cl [Compound I-163, (S)—N-(2-((5-chloro-2-((2-cyano-4-(2-(hydroxymethyl)pyrrolidin-1-yl)phenyl)amino)pyrimidin-4-yl)amino)-5-methoxyphenyl)acrylamide]",6.00 to 6.30
8,"C=CC(=O)N(C)c1ccccc1Nc1nc(N[C@H]2CC[C@H](O)CC2)ncc1Cl [Compound I-104, N-(2-((5-chloro-2-(trans-(4-hydroxycyclohexyl)amino)pyrimidin-4-yl)amino)phenyl)-N-methylacrylamide]",6.00 to 6.30
9,"C=CC(=O)Nc1ccccc1Nc1nc(Nc2cc(C(=O)O)ccc2C)ncc1C(F)(F)F [Compound I-78, 3-((4-((2-Acrylamidophenyl)amino)-5-(trifluoromethyl)pyrimidin-2-yl)amino)-4-methylbenzoic acid]",6.00 to 6.30
10,"C=CC(=O)N[C@@H]1CCCC[C@H]1Nc1nc(Nc2cc(C(=O)NOCCO)ccc2C)ncc1C(N)=O (racemic) [Compound I-257, Rac-trans-4-((2-acrylamidocyclohexyl)amino)-2-((5-((2-hydroxyethoxy)carbamoyl)-2-methylphenyl)amino)pyrimidine-5-carboxamide]",< 6.00
11,"C=CC(=O)Nc1cc(OC)ccc1Nc1nc(Nc2ccc(N3CCN(C(C)=O)CC3)cc2OC)ncc1Cl [Compound I-152, N-(2-((2-((4-(4-acetylpiperazin-1-yl)-2-methoxyphenyl)amino)-5-chloropyrimidin-4-yl)amino)-5-methoxyphenyl)acrylamide]",6.00 to 6.30

# Second part, the compound after the results:
row,pIC50,Compound
1,6.00 to 6.30,C=CC(=O)Nc1ccccc1Nc1nc(Nc2ccc(N(CC)C(C)=O)cc2C(F)(F)F)ncc1Cl [Compound I-320]
2,6.30 to 7.00,"C=CC(=O)Nc1ccccc1Nc1nc(Nc2ccc(N3CCNCC3)cc2OC(F)F)ncc1Cl [Compound I-142, N-(2-((5-chloro-2-((2-(difluoromethoxy)-4-(piperazin-1-yl)phenyl)amino)pyrimidin-4-yl)amino)phenyl)acrylamide]"
3,6.30 to 7.00,"C=CC(=O)Nc1ccccc1Nc1nc(N[C@H]2CC[C@H](C(N)=O)CC2)ncc1C(F)(F)F [Compound I-16, 4-((4-((2-acrylamidophenyl)amino)-5-(trifluoromethyl)pyrimidin-2-yl)amino)-trans-cyclohexanecarboxamide]"
4,6.30 to 7.00,"C=CC(=O)Nc1ccccc1Nc1nc(Nc2ccc(N3CCN(C(=O)CCCC(=O)NCCCOCCOCCOCCCNC(=O)CCCC[C@@H]4SC[C@@H]5NC(=O)N[C@@H]54)CC3)cc2OC(F)F)ncc1Cl [Compound I-306, 5-(4-(4-((4-((2-acrylamidophenyl)amino)-5-chloropyrimidin-2-yl)amino)-3-(difluoromethoxy)phenyl)piperazin-1-yl)-5-oxo-N-(15-oxo-19-((3aS,4S,6aR)-2-oxohexahydro-1H-thieno[3,4-d]imidazol-4-yl)-4,7,10-trioxa-14-azanonadecyl)pentanamide]"
5,6.30 to 7.00,"C=CC(=O)Nc1cc(OC)ccc1Nc1nc(Nc2ccc(N(CC)C(C)=O)cc2OC)ncc1Cl [Compound I-175, N-(2-((5-chloro-2-((4-(N-ethylacetamido)-2-methoxyphenyl)amino)pyrimidin-4-yl)amino)-5-methoxyphenyl)acrylamide]"
6,6.30 to 7.00,"C=CC(=O)Nc1ccccc1Nc1nc(N[C@H]2CCCN(C(=O)[C@H](O)CO)C2)ncc1C(F)(F)F [Compound I-51, N-(2-((2-(((S)-1-((R)-2,3-Dihydroxypropanoyl)piperidin-3-yl)amino)-5-(trifluoromethyl)pyrimidin-4-yl)amino)phenyl)acrylamide]"
7,6.30 to 7.00,"C=CC(=O)Nc1ccccc1Nc1nc(N[C@H]2CC[C@H](C(N)=O)CC2)ncc1Cl [Compound I-129, trans-4-((4-((2-acrylamidophenyl)amino)-5-chloropyrimidin-2-yl)amino)-cyclohexanecarboxamide]"
8,6.30 to 7.00,C=CC(=O)Nc1ccccc1Nc1nc(N[C@H]2CC[C@H](O)CC2)ncc1Cl [Compound I-101]
9,6.30 to 7.00,"C=CC(=O)Nc1ccccc1Nc1nc(N[C@H]2CC[C@H](O)CC2)ncc1C(F)(F)F [Compound I-1, Trans-N-(2-((2-((4-hydroxycyclohexyl)amino)-5-(trifluoromethyl)pyrimidin-4-yl)amino)phenyl)acrylamide]"
10,6.30 to 7.00,"C=CC(=O)Nc1ccccc1Nc1nc(N[C@@H]2CCC[C@H](C(=O)NOCCO)C2)ncc1C(F)(F)F (racemic) [Compound I-4, Rac-cis-3-((4-((2-acrylamidophenyl)amino)-5-(trifluoromethyl)pyrimidin-2-yl)amino)-N-(2-hydroxyethoxyl)cyclohexanecarboxamide]"
11,6.30 to 7.00,C=CC(=O)Nc1ccccc1Nc1nc(N[C@H]2CC[C@H](OC)CC2)ncc1Cl [Compound I-100]
12,6.30 to 7.00,"C=CC(=O)Nc1ccccc1Nc1nc(N[C@H]2CCCN(C(=O)[C@@H](O)CO)C2)ncc1C(F)(F)F [Compound I-50, N-(2-((2-(((S)-1-((S)-2,3-Dihydroxypropanoyl)piperidin-3-yl)amino)-5-(trifluoromethyl)pyrimidin-4-yl)amino)phenyl)acrylamide]"
13,6.30 to 7.00,"C=CC(=O)Nc1ccccc1Nc1nc(N[C@@H]2CCC[C@H](C(=O)NOC)C2)ncc1C(F)(F)F (racemic) [Compound I-3, Rac-cis-3-((4-((2-acrylamidophenyl)amino)-5-(trifluoromethyl)pyrimidin-2-yl)amino)-N-methoxycyclohexanecarboxamide]"
